The values that follow come from patent US4473557A, “3"-Deoxystreptomycin production thereof and pharmaceutical compositions containing same” (Zaidan Hojin Biseibutsu Kagaku Kenkyu Kai, priority 1982, dated 1984).

Data set [1] has as its system resistant bacteria. Particulars: Kokai No. 105154/77; Journal of Antibiotics Vol. 29, 978 (1976); cited from earlier work.
In data set [2] the test system is Escherichia coli JR66/W677. The experiment in a line: Minimum inhibitory concentration, serial dilution on nutrient agar. In kind it is cell-based. Particulars: 37° C., 17 hours. An excerpt: (§1) Minimum inhibitory concentrations (mcg/ml) of streptomycin and of the parent 3"-deoxydihydrostreptomycin were also estimated in the same manner as above for the comparison purpose and are shown in Table 1 below.

Data set [3] deals with Escherichia coli C600 R135. The data set is described as above. The data set is classed as cell-based. Particulars: C600R135, 17 h.
Source text: as §1

Data set [4] has as its system Pseudomonas aeruginosa No. 12. The data set is described as above. In kind it is cell-based.
Source text: as §1

In data set [5] the test system is Escherichia coli W 677. The description is as above. The data set is classed as cell-based.
Source text: as §1

Data set [6] concerns Escherichra coli ML 1630. The data set is described as above. The data set is classed as cell-based. The settings on record: 37° C., 17 hours.
Source text: as §1

Data set [7] deals with Salmonella typhi T-63. The data set is described as above. The data set is classed as cell-based. Particulars: Salmonella enterica, 17 h.
Source text: as §1

In data set [8] the test system is Mycobacterium smegmatis 607. The data set is described as above. The data set is classed as cell-based.
Source text: as §1

Data set [9] relates to Bacillus subtilis NRRL B558. The description is as above. In kind it is cell-based.
Source text: as §1

Data set [10] concerns Staphylococcus aureus 209 P. Described as above. In kind it is cell-based.
Source text: as §1

In data set [11] the test system is Sarcia lutea 1001. Described as above. The settings on record: 17 h. In kind it is cell-based.
Source text: as §1

Data set [12] relates to Pseudomonas aeruginosa A3. The data set is described as above. The data set is classed as cell-based.
Source text: as §1

For data set [13], the system named is Escherichia coli K-12. The data set is described as above. In kind it is cell-based.
Source text: as §1

Data set [14] deals with Escherichia coli ML 1629. The data set is described as above. The data set is classed as cell-based.
Source text: as §1

Data set [15] can be described thus: in vivo. The settings on record: mouse, iv.
Data set [16] relates to streptomycin-resistant bacteria. The experiment in a line: Activity against streptomycin-resistant bacteria. In kind it is cell-based. Particulars: variety of streptomycin-resistant bacteria.
Source text: as §1

Data set [17] has as its system ICR mice. The data set is described as follows: Acute toxicity by intravenous injection in mice. Particulars: dosage of 4 mg/kg (so in the source).
Setting [18] is: Pseudomonas aeruginosa No. 12, nutrient agar, 37° C., 17 hours, read-out: MIC.
The mark [19] stands for this setting: W677, Escherichia coli W 677, nutrient agar, 37° C., 17 hours, read-out: MIC.
Setting [20] is: Mycolicibacterium smegmatis, Mycobacterium smegmatis 607, nutrient agar, 37° C., 17 hours, read-out: MIC.
Setting [21] is: NRRLB558, Bacillus subtilis NRRL B558, nutrient agar, 37° C., 17 hours, read-out: MIC.
[22] abbreviates: Staphylococcus aureus, 209P, 17 h.
The mark [23] stands for this setting: Pseudomonas aeruginosa A3, nutrient agar, 37° C., 17 hours, read-out: MIC.
Where [24] appears, read: K12, Escherichia coli K-12, nutrient agar, 37° C., 17 hours, read-out: MIC.

The structures appear in SMILES notation. Converted amounts (≈) assume the structure as drawn. Where two headings read alike, the source gives them in different places.

Turning to `CNC1CC(O)C(CO)OC1OC1C(OC2C(O)C(O)C(NC(=N)N)C(O)C2NC(=N)N)OC(C)C1(O)CO` (stereo not shown) [3"-Deoxydihydrostreptomycin, 3"-deoxydihydrostreptomycin], in data set [1], the “activity against the resistant bacteria” value is reported as “active against the resistant bacteria”. Further, the MIC in data set [2] came out at 12.5 µg/mL (≈ 22 µM); in data set [3], 3.12 µg/mL (≈ 5.5 µM); in data set [4] (setting [18]), 25 µg/mL (≈ 44 µM); in data set [5] (setting [19]) it was 1.56 µg/mL (≈ 2.75 µM); in data set [6], 1.56 µg/mL (≈ 2.75 µM); in data set [7] it was 3.12 µg/mL (≈ 5.5 µM). Besides, the MIC in [8] (setting [20]) worked out at 0.78 µg/mL (≈ 1.37 µM); in data set [9] (setting [21]), 1.56 µg/mL (≈ 2.75 µM); in data set [10] (setting [22]) it was 3.12 µg/mL (≈ 5.5 µM); in [11], 3.12 µg/mL (≈ 5.5 µM); in data set [12] (setting [23]) it was 12.5 µg/mL (≈ 22 µM); in data set [13] (setting [24]), 1.56 µg/mL (≈ 2.75 µM). The same compound came in with an MIC in data set [14] (Escherichia coli, ML1629, 17 h) of 3.12 µg/mL (≈ 5.5 µM).
In the case of `CNC1CC(O)C(CO)OC1OC1C(OC2C(O)C(O)C(NC(=N)N)C(O)C2NC(=N)N)OC(C)C1(O)C=O` (stereo not shown) [3"-Deoxystreptomycin, 3"-deoxystreptomycin], the MIC was 12.5 µg/mL (≈ 22.1 µM) in data set [2]; 3.12 µg/mL (≈ 5.52 µM) in data set [3]; 25 µg/mL (≈ 44.2 µM) in data set [4] (setting [18]); 1.56 µg/mL (≈ 2.76 µM) in data set [5] (setting [19]); 3.12 µg/mL (≈ 5.52 µM) in [6]; 0.78 µg/mL (≈ 1.38 µM) in data set [7]. Moreover, the minimal inhibitory concentration (MIC) was determined as 0.78 µg/mL (≈ 1.38 µM) in data set [8] (setting [20]); 1.56 µg/mL (≈ 2.76 µM) in [9] (setting [21]); 3.12 µg/mL (≈ 5.52 µM) in [10] (Staphylococcus aureus 209 P, nutrient agar, 37° C., 17 hours, read-out: MIC.); 1.56 µg/mL (≈ 2.76 µM) in data set [11]; 6.25 µg/mL (≈ 11.1 µM) in [12] (setting [23]); 1.56 µg/mL (≈ 2.76 µM) in [13] (setting [24]). Also, the MIC in data set [14] (ML1629, Escherichia coli ML 1629, nutrient agar, 37° C., 17 hours, read-out: MIC.) worked out at 1.56 µg/mL (≈ 2.76 µM). For the same compound, in [15], the LD50 at 336 h is greater than 200 mg/kg. Besides, in data set [16], the “activity against streptomycin-resistant bacteria” value is recorded as “active against a variety of streptomycin-resistant bacteria”. The “survival for more than 14 days” value in data set [17] is on record as “all the treated mice survived for more than 14 days”.
In the case of `[H]/N=C(/N)N[C@H]1[C@H](O)[C@@H](O)[C@H](O[C@@H]2O[C@@H](C)[C@](O)(C=O)[C@H]2O[C@@H]2O[C@@H](CO)[C@H](O)[C@@H](O)[C@@H]2NC)[C@@H](N/C(N)=N\[H])[C@@H]1O` [Streptomycin, streptomycin], the MIC in data set [2] was greater than 100 µg/mL; in [3] it was 50 µg/mL (≈ 86 µM); in data set [4] (Pseudomonas aeruginosa, NO.12, 17 h), 25 µg/mL (≈ 43 µM); in data set [5] (Escherichia coli, W677, 17 h) it was 1.56 µg/mL (≈ 2.68 µM); in data set [6], greater than 100 µg/mL; in data set [7], 25 µg/mL (≈ 43 µM). Further, the minimal inhibitory concentration (MIC) in data set [8] (Mycolicibacterium smegmatis, 607, 17 h) came to 1.56 µg/mL (≈ 2.68 µM); in data set [9] (Bacillus subtilis, NRRLB558, 17 h), 0.78 µg/mL (≈ 1.34 µM); in data set [10] (setting [22]), 3.12 µg/mL (≈ 5.36 µM); in [11], 1.56 µg/mL (≈ 2.68 µM); in data set [12] (Pseudomonas aeruginosa, A3, 17 h), 6.25 µg/mL (≈ 10.7 µM); in [13] (Escherichia coli, K12, 17 h) it was 1.56 µg/mL (≈ 2.68 µM). The same compound displayed an MIC in data set [14] (Escherichia coli, ML1629, 17 h) of 100 µg/mL (≈ 172 µM).
